# Test results reported in article PMC5218480 (PLoS ONE, 2017).
# System: MV-4-11 cells
# Assay: Gene expression microarray analysis (Affymetrix PrimeView) and GSEA
# Type: cell-based, human
# Parameters: RFU PODN (11730768_x_at) / Fold change /veh PODN (11730768_x_at) / RFU LINC00158 (11744669_a_at) / Fold change /veh LINC00158 (11744669_a_at) / RFU DUSP10 (11751237_a_at) / Fold change /veh DUSP10 (11751237_a_at) / RFU ID3 (11757404_x_at) / Fold change /veh ID3 (11757404_x_at) / RFU PLEKHG5 (11737974_s_at) / Fold change /veh PLEKHG5 (11737974_s_at) / RFU LRRC4B (11730491_at) / Fold change /veh LRRC4B (11730491_at) / RFU GIMAP4 (11747438_a_at) / Fold change /veh GIMAP4 (11747438_a_at) / RFU KRT8 (11758183_x_at) / Fold change /veh KRT8 (11758183_x_at) / RFU CNN1 (11734310_a_at) / Fold change /veh CNN1 (11734310_a_at) / RFU VPS37D (11726825_at) / Fold change /veh VPS37D (11726825_at) / RFU C10orf10 (11716522_x_at) / Fold change /veh C10orf10 (11716522_x_at) / RFU KIR2DL2 /// KIR2DL4 /// KIR2DL5A /// KIR2DL5B /// KIR2DS1 /// KIR2DS2 /// KIR2DS3 /// KIR2DS4 /// KIR3DL3 /// KIR3DL3 /// KIR3DS1 (11738374_at) / Fold change /veh KIR2DL2 /// KIR2DL4 /// KIR2DL5A /// KIR2DL5B /// KIR2DS1 /// KIR2DS2 /// KIR2DS3 /// KIR2DS4 /// KIR3DL3 /// KIR3DL3 /// KIR3DS1 (11738374_at) / RFU C1QL1 (11718748_at) / Fold change /veh C1QL1 (11718748_at) / RFU TMPRSS4 (11747572_a_at) / Fold change /veh TMPRSS4 (11747572_a_at) / RFU HAMP (11756126_x_at) / Fold change /veh HAMP (11756126_x_at) / RFU RNFT2 (11725882_a_at) / Fold change /veh RNFT2 (11725882_a_at) / RFU NR4A2 (11747474_a_at) / Fold change /veh NR4A2 (11747474_a_at) / RFU ABCC12 (11746883_a_at) / Fold change /veh ABCC12 (11746883_a_at) / RFU TMEM136 (11760407_x_at) / Fold change /veh TMEM136 (11760407_x_at) / RFU CLDN22 /// WWC2 (11732394_at) / Fold change /veh CLDN22 /// WWC2 (11732394_at) / RFU HLA-DPB1 (11760878_x_at) / Fold change /veh HLA-DPB1 (11760878_x_at) / RFU SPINT1 (11716480_a_at) / Fold change /veh SPINT1 (11716480_a_at) / RFU GAP43 (11754022_s_at) / Fold change /veh GAP43 (11754022_s_at) / RFU A4GNT (11735810_at) / Fold change /veh A4GNT (11735810_at) / RFU PRB3 (11715151_x_at) / Fold change /veh PRB3 (11715151_x_at) / RFU TUBB4B (11761932_at) / Fold change /veh TUBB4B (11761932_at) / RFU CAPN14 (11732068_a_at) / Fold change /veh CAPN14 (11732068_a_at) / RFU TMCC2 (11721928_a_at) / Fold change /veh TMCC2 (11721928_a_at) / RFU IRGQ (11745062_a_at) / Fold change /veh IRGQ (11745062_a_at) / RFU FAM174B (11720279_a_at) / Fold change /veh FAM174B (11720279_a_at) / RFU TMPRSS4 (11748680_a_at) / Fold change /veh TMPRSS4 (11748680_a_at) / RFU FAM212B (11763350_a_at) / Fold change /veh FAM212B (11763350_a_at) / RFU PLEKHG5 (11743358_a_at) / Fold change /veh PLEKHG5 (11743358_a_at) / RFU ZSCAN30 (11745921_a_at) / Fold change /veh ZSCAN30 (11745921_a_at) / RFU CMKLR1 (11741424_a_at) / Fold change /veh CMKLR1 (11741424_a_at) / RFU LOC101060620 /// MAPK8IP1 (11723275_at) / Fold change /veh LOC101060620 /// MAPK8IP1 (11723275_at) / RFU SPTSSB (11747773_x_at) / Fold change /veh SPTSSB (11747773_x_at) / RFU PRSS12 (11739890_at) / Fold change /veh PRSS12 (11739890_at) / RFU BIN1 (11741810_x_at) / Fold change /veh BIN1 (11741810_x_at) / RFU WNT11 (11732464_a_at) / Fold change /veh WNT11 (11732464_a_at) / RFU C10orf10 (11716521_a_at) / Fold change /veh C10orf10 (11716521_a_at) / RFU C5orf56 (11738089_at) / Fold change /veh C5orf56 (11738089_at) / RFU CYB561 (11721691_x_at) / Fold change /veh CYB561 (11721691_x_at) / RFU ANKRD19P (11752326_a_at) / Fold change /veh ANKRD19P (11752326_a_at) / RFU OR2T12 /// OR2T33 /// OR2T8 (11738714_s_at) / Fold change /veh OR2T12 /// OR2T33 /// OR2T8 (11738714_s_at) / RFU VCAN (11748164_a_at) / Fold change /veh VCAN (11748164_a_at) / RFU JSRP1 (11732532_at) / Fold change /veh JSRP1 (11732532_at) / RFU KRTAP10-11 (11738290_x_at) / Fold change /veh KRTAP10-11 (11738290_x_at) / RFU MYO3A (11730013_a_at) / Fold change /veh MYO3A (11730013_a_at) / RFU EBF3 (11725865_a_at) / Fold change /veh EBF3 (11725865_a_at) / RFU CAMK2N1 (11719241_x_at) / Fold change /veh CAMK2N1 (11719241_x_at) / RFU C5orf56 (11738088_a_at) / Fold change /veh C5orf56 (11738088_a_at) / RFU OLFML3 (11715873_a_at) / Fold change /veh OLFML3 (11715873_a_at) / RFU LOC100653217 /// NTM (11731650_a_at) / Fold change /veh LOC100653217 /// NTM (11731650_a_at) / RFU MAPK11 (11762145_a_at) / Fold change /veh MAPK11 (11762145_a_at) / RFU FIZ1 (11724087_x_at) / Fold change /veh FIZ1 (11724087_x_at) / RFU OASL (11726364_x_at) / Fold change /veh OASL (11726364_x_at) / RFU SOX15 (11748057_x_at) / Fold change /veh SOX15 (11748057_x_at) / RFU CD79A (11719716_a_at) / Fold change /veh CD79A (11719716_a_at) / RFU HIST1H1D (11736915_at) / Fold change /veh HIST1H1D (11736915_at) / RFU CASKIN2 (11723855_a_at) / Fold change /veh CASKIN2 (11723855_a_at) / RFU LOC730098 (11760151_x_at) / Fold change /veh LOC730098 (11760151_x_at) / RFU OR4N2 (11742367_at) / Fold change /veh OR4N2 (11742367_at) / RFU PRRT2 (11749266_a_at) / Fold change /veh PRRT2 (11749266_a_at) / RFU SNX32 (11753110_a_at) / Fold change /veh SNX32 (11753110_a_at) / RFU CDHR5 (11726645_a_at) / Fold change /veh CDHR5 (11726645_a_at) / RFU RCAN1 (11760418_a_at) / Fold change /veh RCAN1 (11760418_a_at) / RFU FAM167A (11723789_a_at) / Fold change /veh FAM167A (11723789_a_at) / RFU FAM26E (11764081_at) / Fold change /veh FAM26E (11764081_at) / RFU ISYNA1 (11749810_s_at) / Fold change /veh ISYNA1 (11749810_s_at) / RFU ACY1 (11761880_at) / Fold change /veh ACY1 (11761880_at) / RFU 11764098_at / Fold change /veh 11764098_at / RFU SAMD14 (11745864_x_at) / Fold change /veh SAMD14 (11745864_x_at) / RFU NPB (11741838_a_at) / Fold change /veh NPB (11741838_a_at) / RFU TMPRSS6 (11731388_a_at) / Fold change /veh TMPRSS6 (11731388_a_at) / RFU KRTAP10-2 (11738614_at) / Fold change /veh KRTAP10-2 (11738614_at) / RFU ARHGAP8 /// PRR5-ARHGAP8 (11727945_x_at) / Fold change /veh ARHGAP8 /// PRR5-ARHGAP8 (11727945_x_at) / RFU KRTAP5-7 /// NADSYN1 (11734609_at) / Fold change /veh KRTAP5-7 /// NADSYN1 (11734609_at) / RFU RASL12 (11751679_a_at) / Fold change /veh RASL12 (11751679_a_at) / RFU CDKN2B (11736163_a_at) / Fold change /veh CDKN2B (11736163_a_at) / RFU PRF1 (11729649_at) / Fold change /veh PRF1 (11729649_at) / RFU, ZNF638 /// ZNF638-IT1 / Fold change vs veh, ZNF638 /// ZNF638-IT1 / RFU, PANK3 / Fold change vs veh, PANK3 / RFU, SH3YL1 / Fold change vs veh, SH3YL1 / RFU, ZEB2 / Fold change vs veh, ZEB2 / RFU, NRIP1 / Fold change vs veh, NRIP1 / RFU, PTTG1IP / Fold change vs veh, PTTG1IP / RFU, CAPN2 / Fold change vs veh, CAPN2 / RFU, MED14 / Fold change vs veh, MED14 / RFU, SNORA58 / Fold change vs veh, SNORA58 / RFU, C1orf63 / Fold change vs veh, C1orf63 / RFU, LRRFIP1 / Fold change vs veh, LRRFIP1 / RFU, NDUFAF7 / Fold change vs veh, NDUFAF7 / RFU, SLC12A2 / Fold change vs veh, SLC12A2 / RFU, IBTK / Fold change vs veh, IBTK / RFU, ESF1 / Fold change vs veh, ESF1 / Fold change vs veh, TMEM50B / RFU, TAOK1 / Fold change vs veh, TAOK1 / RFU, ACBD3 / Fold change vs veh, ACBD3 / RFU, TMA16 / Fold change vs veh, TMA16 / RFU, RWDD3 / Fold change vs veh, RWDD3 / RFU, BCAT1 / Fold change vs veh, BCAT1 / RFU, EDEM3 / Fold change vs veh, EDEM3 / RFU, TMEM33 / Fold change vs veh, TMEM33 / RFU, WDR75 / Fold change vs veh, WDR75 / RFU, AHCTF1 / Fold change vs veh, AHCTF1 / RFU, TFRC / Fold change vs veh, TFRC / RFU, ZDHHC17 / Fold change vs veh, ZDHHC17 / RFU, NOM1 / Fold change vs veh, NOM1 / RFU, ARL8B / Fold change vs veh, ARL8B / RFU, ZBTB11 / Fold change vs veh, ZBTB11 / RFU, TAMM41 / Fold change vs veh, TAMM41 / RFU, KIAA1704 /// LOC100996395 / Fold change vs veh, KIAA1704 /// LOC100996395 / RFU, ING1 / Fold change vs veh, ING1 / RFU, TRMT61B / Fold change vs veh, TRMT61B / RFU, FUBP3 / Fold change vs veh, FUBP3 / RFU, TP53 / Fold change vs veh, TP53 / RFU, TNKS2 / Fold change vs veh, TNKS2 / RFU, ZFP14 / Fold change vs veh, ZFP14 / RFU, ACTR2 / Fold change vs veh, ACTR2 / RFU, PPP3R1 / Fold change vs veh, PPP3R1 / RFU, PIK3R1 / Fold change vs veh, PIK3R1 / RFU, HNRNPA1 / Fold change vs veh, HNRNPA1 / RFU, RNF170 / Fold change vs veh, RNF170 / RFU, ZNF28 / Fold change vs veh, ZNF28 / RFU, RNGTT / Fold change vs veh, RNGTT / RFU, OGT / Fold change vs veh, OGT / RFU, BRD1 / Fold change vs veh, BRD1 / RFU, MARS / Fold change vs veh, MARS / RFU, ZNF655 / Fold change vs veh, ZNF655 / RFU, FAHD1 / Fold change vs veh, FAHD1 / RFU, BDP1 / Fold change vs veh, BDP1 / RFU, LRRCC1 / Fold change vs veh, LRRCC1 / RFU, ARID1A / Fold change vs veh, ARID1A / RFU, ZNF146 / Fold change vs veh, ZNF146 / RFU, ZNF330 / Fold change vs veh, ZNF330 / RFU, GPN3 / Fold change vs veh, GPN3 / RFU, C9orf123 / Fold change vs veh, C9orf123 / RFU, N4BP2L2 / Fold change vs veh, N4BP2L2 / RFU, ARFIP1 / Fold change vs veh, ARFIP1 / RFU, FAM179B / Fold change vs veh, FAM179B / RFU, BCL10 / Fold change vs veh, BCL10 / RFU, UHRF1BP1L / Fold change vs veh, UHRF1BP1L / RFU, BET1 / Fold change vs veh, BET1 / RFU, CNOT2 / Fold change vs veh, CNOT2 / RFU, ZNF268 / Fold change vs veh, ZNF268 / Fold change vs veh, ZNF507 / RFU, DGCR2 / Fold change vs veh, DGCR2 / RFU, WDSUB1 / Fold change vs veh, WDSUB1 / Fold change vs veh, HSP90B1 /// MIR3652 / RFU, ADSS / Fold change vs veh, ADSS / RFU, GK / Fold change vs veh, GK / RFU, ZNF148 / Fold change vs veh, ZNF148 / RFU, TAF9 / Fold change vs veh, TAF9 / RFU, SLC1A5 / Fold change vs veh, SLC1A5 / RFU, SLMO2 / Fold change vs veh, SLMO2 / RFU, ABCC4 / Fold change vs veh, ABCC4 / RFU, LOC101060439 /// RAP1B / Fold change vs veh, LOC101060439 /// RAP1B / RFU, RFX7 / Fold change vs veh, RFX7 / RFU, GTPBP10 / Fold change vs veh, GTPBP10 / RFU, CNEP1R1 / Fold change vs veh, CNEP1R1 / RFU, BIVM-ERCC5 /// ERCC5 / Fold change vs veh, BIVM-ERCC5 /// ERCC5 / RFU, ILF3 / Fold change vs veh, ILF3 / RFU 11762660_at / Fold change /veh 11762660_at / RFU VCAN (11757783_s_at) / Fold change /veh VCAN (11757783_s_at) / RFU DDX43 (11728927_at) / Fold change /veh DDX43 (11728927_at) / RFU KRT8 (11758188_x_at) / Fold change /veh KRT8 (11758188_x_at) / RFU NKD1 (11759106_at) / Fold change /veh NKD1 (11759106_at) / RFU SRD5A1 (11742802_a_at) / Fold change /veh SRD5A1 (11742802_a_at) / RFU TPSAB1 /// TPSB2 (11721975_s_at) / Fold change /veh TPSAB1 /// TPSB2 (11721975_s_at) / RFU GSTM3 (11746129_a_at) / Fold change /veh GSTM3 (11746129_a_at) / RFU IL23R (11737362_x_at) / Fold change /veh IL23R (11737362_x_at) / RFU TMEM51 (11727254_a_at) / Fold change /veh TMEM51 (11727254_a_at) / RFU PIWIL2 (11732686_x_at) / Fold change /veh PIWIL2 (11732686_x_at) / RFU ORM1 (11744905_x_at) / Fold change /veh ORM1 (11744905_x_at) / RFU CCDC152 (11743942_at) / Fold change /veh CCDC152 (11743942_at) / RFU ECM1 (11717891_a_at) / Fold change /veh ECM1 (11717891_a_at) / RFU IL23R (11748794_a_at) / Fold change /veh IL23R (11748794_a_at) / RFU TNFAIP8L3 (11732012_x_at) / Fold change /veh TNFAIP8L3 (11732012_x_at) / RFU MBOAT4 (11741988_at) / Fold change /veh MBOAT4 (11741988_at) / RFU 11764193_at / Fold change /veh 11764193_at / RFU TMEM53 (11763286_at) / Fold change /veh TMEM53 (11763286_at) / RFU MAGEB2 (11727129_at) / Fold change /veh MAGEB2 (11727129_at) / RFU TMEM200A (11744735_a_at) / Fold change /veh TMEM200A (11744735_a_at) / RFU CCDC152 (11751479_a_at) / Fold change /veh CCDC152 (11751479_a_at) / RFU FAM211A (11726209_a_at) / Fold change /veh FAM211A (11726209_a_at) / RFU RGS16 (11746705_a_at) / Fold change /veh RGS16 (11746705_a_at) / RFU VCAN (11755009_s_at) / Fold change /veh VCAN (11755009_s_at) / RFU RHOB (11743442_s_at) / Fold change /veh RHOB (11743442_s_at) / RFU RGS16 (11720943_a_at) / Fold change /veh RGS16 (11720943_a_at) / RFU RGS16 (11720944_at) / Fold change /veh RGS16 (11720944_at) / RFU, VPS4B / Fold change vs veh, VPS4B / RFU, CREB1 / Fold change vs veh, CREB1 / RFU, DNAJC13 / Fold change vs veh, DNAJC13 / RFU, GNAQ / Fold change vs veh, GNAQ / RFU, CDK5R1 / Fold change vs veh, CDK5R1 / RFU, ZRANB3 / Fold change vs veh, ZRANB3 / RFU, CUL4A / Fold change vs veh, CUL4A / RFU, CCNY / Fold change vs veh, CCNY / RFU, UFL1 / Fold change vs veh, UFL1 / RFU, COG3 / Fold change vs veh, COG3 / RFU, DIAPH2 / Fold change vs veh, DIAPH2 / RFU, SKA2 / Fold change vs veh, SKA2 / RFU, AFF3 / Fold change vs veh, AFF3 / RFU, LMF1 / Fold change vs veh, LMF1 / RFU, IPO11 / Fold change vs veh, IPO11 / RFU, DFFB / Fold change vs veh, DFFB / RFU, FOXP1 / Fold change vs veh, FOXP1 / RFU, CARD8 / Fold change vs veh, CARD8 / RFU, STRN3 / Fold change vs veh, STRN3 / RFU, ADK / Fold change vs veh, ADK / RFU, RASSF2 / Fold change vs veh, RASSF2 / RFU, WIPF1 / Fold change vs veh, WIPF1 / RFU, LARP1B / Fold change vs veh, LARP1B / RFU, RASA1 / Fold change vs veh, RASA1 / RFU, RB1 / Fold change vs veh, RB1 / RFU, PPFIA1 / Fold change vs veh, PPFIA1 / RFU, MAT2A / Fold change vs veh, MAT2A / RFU, CCT5 / Fold change vs veh, CCT5 / RFU, WDR92 / Fold change vs veh, WDR92 / RFU, CUX1 / Fold change vs veh, CUX1 / RFU, TTC7A / Fold change vs veh, TTC7A / RFU, TMEM135 / Fold change vs veh, TMEM135 / RFU, DEPTOR / Fold change vs veh, DEPTOR / RFU, CPM / Fold change vs veh, CPM / RFU, DNAJB6 / Fold change vs veh, DNAJB6 / RFU, CACNA2D3 / Fold change vs veh, CACNA2D3 / RFU, DTX4 / Fold change vs veh, DTX4 / RFU, TFCP2 / Fold change vs veh, TFCP2 / RFU, GMCL1 /// GMCL1P1 / Fold change vs veh, GMCL1 /// GMCL1P1 / RFU, AEBP2 / Fold change vs veh, AEBP2 / RFU, SNHG1 /// SNORD22 /// SNORD25 /// SNORD26 /// SNORD27 /// SNORD28 /// SNORD29 /// SNORD31 / Fold change vs veh, SNHG1 /// SNORD22 /// SNORD25 /// SNORD26 /// SNORD27 /// SNORD28 /// SNORD29 /// SNORD31 / Fold change (Aza/veh), C12orf56 (ProbeSet 11735607_a_at) / Fold change (ACY-1035/veh), C12orf56 (ProbeSet 11735607_a_at) / Fold change (Aza/veh), FGFR1OP (ProbeSet 11751329_s_at) / Fold change (ACY-1035/veh), FGFR1OP (ProbeSet 11751329_s_at) / Fold change (Aza/veh), VPS36 (ProbeSet 11739960_a_at) / Fold change (ACY-1035/veh), VPS36 (ProbeSet 11739960_a_at) / RFU SYPL1 (11715823_x_at) / Fold change /veh SYPL1 (11715823_x_at) / RFU IGFBP7 (11715501_s_at) / Fold change /veh IGFBP7 (11715501_s_at) / RFU REEP3 (11722064_at) / Fold change /veh REEP3 (11722064_at) / RFU IGLL1 (11728026_x_at) / Fold change /veh IGLL1 (11728026_x_at): dose or concentration left out as unconfirmed
# Settings: ProbeSet 11758170_s_at; LIST D
structure (smiles),measurement,value
Nc1ccc(-c2cccs2)cc1NC(=O)c1ccc2c(c1)cc(C1CC1)n2CCN1CCOCC1 [ACY-1035],"Fold change vs veh, DIAPH2",1.00
